This is an account of results in paper PMC10745505 (Molecules, 2023).

One series concerns influenza virus. Details: method as in PMID 11825310, PMID 9588843. To be noted: usually; cited from earlier work.
Series [1] has as its system MDCK cells (Madin–Darby canine kidney cells). Conditions: absence of virus, up to 500 μM, 72 h.
In the next series the test system is Hep-2 cells. Briefly: Cellular penetration: Mo content in Hep-2 cells by ICP-AES. The format is cell-based, human. To be noted: for Cellular penetration: Hep-2 cells, 30 min to 48 h incubation, ICP-AES. On the procedure: (§1) The cells were seeded into 6-well plates at concentration of 5 × 10^5 cells/well. The next day, solutions of 1 and 2 were added to the plates to give final concentrations of 1.0 mM and incubated with cells for 30 min, 2, 6, 24 and 48 h. Then, cells were washed three times with a sterile phosphate buffer. The cells were then removed from the wells with trypsin and centrifuged at 1000 rpm for 5 min. After centrifugation, the number of cells in each sample was calculated. The resulting cell suspension was brought to a volume of 300 µL in a sterile buffer so that each sample contained 0.5 million cells.
(§2) Molybdenum content in cells after incubation times was determined on a high-resolution spectrometer iCAP-6500 (Thermo Scientific, Waltham, MA, USA) with a cyclone-type spray chamber and “SeaSpray” nebulizer. The spectra were obtained by axial plasma viewing. Standard operating conditions of the ICP-AES system were following: power = 1150 W, injector inner diameter = 3 mm, carrier argon flow = 0.7 L min^−1, accessorial argon flow = 0.5 L min^−1, cooling argon flow = 12 L min^−1, number of parallel measurements = 3, and integration time = 5 s.

For series [2], the system named is MRC-5 (lung tissue fibroblasts of a human embryo). To be noted: read-out: half-maximal cell inhibition concentration (IC50); MRC-5 cells, MTT, 72 h, concentration range up to 2 mM. From the text:
(§3) MDCK (Madin–Darby canine kidney, ATCC CCL34), MRC-5 (lung tissue fibroblasts of a human embryo, collection code 112) and Hep-2 (human larynx carcinoma) cell lines were obtained from the Federal Budgetary Research Institution State Research Center of Virology and Biotechnology “Vector” Rospotrebnadzor cell culture collection, Russian Federation and cultured in Eagle’s Minimum Essential Medium (EMEM) and Dulbecco’s Modified Eagle’s Medium (DMEM) in relation to 1:1 supplemented with a 10% fetal bovine serum under a humidified atmosphere (5% CO2 and 95% air) at 37 °C.
(§4) The effect of compounds 1, 2 and 3 on the cells metabolic activity was determined using the 3-[4,5-dimethylthiazol-2-yl]-2,5-diphenyltetrazolium bromide (MTT) colorimetric assay. The Hep-2 and MRC-5 cells were seeded into 96-well plates at 7 × 10^3 cells/well in a medium-containing compound with concentrations from 2 to 0.01 mM and then incubated for 72 h under 5% CO2 atmosphere. After that, 10 μL of the MTT solution (final concentration of MTT is 0.5 mg·mL^−1) was added to each well, and the plates were incubated for a further 4 h. The formazan produced was then dissolved in DMSO (100 μL/well). The optical density of the solutions was measured with a Mindray Microplate Reader MR-96A (Mindray, Shenzhen, China) at a wavelength of 492 nm. The percentage of cell viability was calculated by the formula: (optical density of the solution in the wells after incubation with the compounds/optical density of the control solution) × 100%. Wells with cells incubated in a pure nutrient medium were used as a control.

In series [3] the test system is Hep-2 (human larynx carcinoma cell line). Conditions: read-out: half-maximal cell inhibition concentration (IC50); Hep-2 cells, MTT, 72 h, concentration range up to 2 mM.
Source text: as §3, §4

In another series the test system is MRC-5 cells. The series can be described thus: Cellular penetration: Mo content in MRC-5 cells by ICP-AES. To be noted: for Cellular penetration: MRC-5 cells, 30 min to 48 h incubation, ICP-AES. The class given is cell-based, human. On the procedure:
as §1, §2

Series [4] can be described thus: Stability in solution by changes in electronic absorption spectra. The format is physicochemical. Conditions: for behaviour in acid solution: HCl, pH~2, two days; for stability in distilled water: pH~6, two days, C~1 mM. On the procedure: Since the compounds are soluble in water, an important factor is their stability in aqueous solutions at different pH. Stability was studied by changes in electronic absorption spectra over two days (C~1 mM, diluted 60 times to record spectra) (Figure 6). […] The most significant changes occur in the acid solution (HCl, pH~2). […] Protonation of the pyrazolate ligands, which occurs in acidic solutions, results in the dissociation of binuclear clusters. […] Unlike the pyrazole, the triazole structure has an additional free nitrogen atom that can be protonated. In this case, protonation of the triazolate ligands and formation of a neutral form [Mo12O28(μ-1,2,4-trz)4(μ-1,2,4-trzH)4] with low solubility apparently occurs. […] The complex can be dissolved back into water by adding any alkali solution, which is confirmed by the preservation of the ^1H NMR spectra (Figure S15). Typically, most POMs are not stable in weakly acidic or alkaline aqueous solutions [26, 27], while the compounds studied show the opposite situation, which is associated with both the structure based on binuclear clusters and their linkages through bridging pyrazolate or triazolate ligands.
Elemental analyses were obtained using a vario MICRO cube analyzer and EuroVector EA3000. Energy-dispersive X-ray spectroscopy (EDS) was performed on a Hitachi TM3000 TableTop SEM (Hitachi High-Technologies Corporation, Tokyo, Japan) with Bruker QUANTAX 70 EDS equipment. FTIR spectra were recorded on a Bruker Vertex 80 as KBr disks. The thermal properties (TGA) were studied on a Thermo Microbalance TG 209 F1 Iris (NETZSCH) from 25 to 800 °C at the heating rate of 10 °C·min^−1 in He flow (30 mL·min^−1). Powder X-ray diffraction patterns were collected on a Philips PW 1820/1710 diffractometer (CuKα radiation, graphite monochromator and Si as an external reference). The absorption spectra (UV–vis) were recorded on an Agilent Cary 60 UV/Vis spectrophotometer.

Series [5] concerns influenza A virus, subtype H5N1 (strain A/chicken/Chelyabinsk region/2KL/Russia/2021). The format is cell-based.
A further series concerns MDCK cells. Details: method as in PMID 24878685. To be noted: read-out: IC50 (cytotoxicity against MDCK cells); cited from earlier work.
The next series has as its system Influenza A H1N1. Details: method as in PMID 24878685. To be noted: Influenza A H1N1, incubation time 48h, cited from earlier work.
A further series is described as follows: Solubility. The class given is physicochemical. Conditions: compared with the other complexes.
The mark [6] stands for this setting: Hep-2, 1 mM solution (∽2350 µg Mo/5·10^5 cells), 30 minutes.
Setting [7] is: MRC-5, 1 mM solution (∽2350 µg Mo/5·10^5 cells), 30 minutes.

Read-outs that look alike come from different tables or passages of the source.

As for `CCOC(=O)C1=C[C@@H](OC(CC)CC)[C@H](NC(C)=O)[C@@H](N)C1` [oseltamivir], the EC50 with influenza virus was < 10 µM.

Turning to “(NH4)4[Mo12O28(μ-1,2,4-trz)8]·1.5(1,2,4-trzH)·3H2O [Compound 2]”, in series [1], the “cytopathic effect on MDCK cells” value was “do not show any significant cytopathic effect”. Also, the “Quantity of Mo accumulated by cells” value in the series on Hep-2 cells (setting [6]) was found to be 0.18 μg Mo/5·105 cells; in the series with Hep-2 cells (Hep-2, 1 mM solution, 2 hours), 0.32 μg Mo/5·105 cells; with Hep-2 cells (Hep-2, 1 mM solution, 6 hours), 0.33 μg Mo/5·105 cells; with Hep-2 cells (Hep-2, 1 mM solution, 24 hours), 0.43 μg Mo/5·105 cells; in the series with Hep-2 cells (Hep-2, 1 mM solution, 48 hours), 0.42 μg Mo/5·105 cells; in the series with MRC-5 cells (setting [7]), 0.23 μg Mo/5·105 cells. The “Quantity of Mo accumulated by cells” value amounted to 0.11 μg Mo/5·105 cells with MRC-5 cells (MRC-5, 1 mM solution, 2 hours); 0.12 μg Mo/5·105 cells in the series with MRC-5 cells (MRC-5, 1 mM solution, 6 hours); 0.34 μg Mo/5·105 cells in the series with MRC-5 cells (MRC-5, 1 mM solution, 24 hours); 0.34 μg Mo/5·105 cells with MRC-5 cells (MRC-5, 1 mM solution, 48 hours). For the same molecule, the Cellular penetration entry in the series on Hep-2 cells and with MRC-5 cells was “absence of cell penetration” each time. The IC50 is 1810 ± 40 µM in [2] and > 2000 µM in [3]. Further, in series [4], the “behaviour in acid solution” value is reported as “immediately precipitates”. Also, the “stability in alkaline solution (spectral change)” value in [4] (NaOH, pH~12, two days) is given as “slight change in the absorption intensity”. The “stability in distilled water” value in series [4] is “high stability”. In addition, in [5] (MDCK cells in presence of H5N1 virus, concentration range tested up to 500 μM), the antiviral effect entry is listed as “no effect or insignificant effect”.

Consider Cs2K4Na[SiW9Nb3O40] [POM93], for which the IC50 with MDCK cells is 140 µM. In addition, the EC50 was ~2.4 µM in the series on Influenza A H1N1 (converted from μg/mL, read-out: EC50) and 7.4 ± 1.1 µg/mL in the series with Influenza A H1N1.

Take “(NH4)4[Mo12O28(μ-pz)8]·1.5pzH·4.5H2O [Compound 1]”: the “cytopathic effect on MDCK cells” value in series [1] was “do not show any significant cytopathic effect”. Besides, the “Quantity of Mo accumulated by cells” value came to 0.25 μg Mo/5·105 cells in the series with Hep-2 cells (setting [6]); 0.46 μg Mo/5·105 cells in the series on Hep-2 cells (Hep-2, 1 mM solution, 2 hours); 0.47 μg Mo/5·105 cells with Hep-2 cells (Hep-2, 1 mM solution, 6 hours); 0.75 μg Mo/5·105 cells with Hep-2 cells (Hep-2, 1 mM solution, 24 hours); 0.75 μg Mo/5·105 cells in the series with Hep-2 cells (Hep-2, 1 mM solution, 48 hours); 0.22 μg Mo/5·105 cells with MRC-5 cells (setting [7]). The “Quantity of Mo accumulated by cells” value with MRC-5 cells (MRC-5, 1 mM solution, 2 hours) stood at 0.25 μg Mo/5·105 cells; in the series with MRC-5 cells (MRC-5, 1 mM solution, 6 hours), 0.24 μg Mo/5·105 cells; in the series on MRC-5 cells (MRC-5, 1 mM solution, 24 hours), 0.77 μg Mo/5·105 cells; in the series on MRC-5 cells (MRC-5, 1 mM solution, 48 hours), 0.83 μg Mo/5·105 cells. Further, the Cellular penetration result in the series with Hep-2 cells and with MRC-5 cells was “absence of cell penetration” each time. The IC50 in series [2] and in series [3] was > 2000 µM each time. Also, in series [4], the “behaviour in acid solution” value is reported as “complete destruction”. Moreover, in series [4] (NaOH, pH~12, two days), the “decrease in the absorption intensity” value is ~ 10%. Also, the “stability in distilled water” value in series [4] is “high stability”. The “concentrations at which antiviral effect was found” value in [5] (MDCK cells in presence of H5N1 virus, 72 h, MTT) is reported as “above 62.5 μM”. For the same molecule, the EC50 in series [5] (presence of H5N1 virus, 72 h, nonlinear regression, read-out: EC50 (50% virus-inhibitory effective concentration as indirectly measured by MDCK cell viability)) worked out at 82.4 ± 11.4 µM.

On to `CC(=O)N[C@H]1[C@H]([C@H](O)[C@H](O)CO)OC(C(=O)O)=C[C@@H]1N=C(N)N` [zanamivir], for which the EC50 with influenza virus was < 10 µM.

With “(NH4)4[Mo12O28(μ-1,2,3-trz)8]·4H2O [Compound 3]”, the solubility in water entry in the series “Solubility” is “significantly lower solubility in water”.
